Measurements published in patent US11446287B2, “Compounds and methods for EP300 or CBP modulation and indications therefor” (Opna Immuno-Oncology SA, priority 2019, dated 2022).
pIC50: −log10 of the molar value.

Target: T1, Recombinant human BRD4 containing dual bromodomains (BRD4-BD12 (1-477)) (Homo sapiens, UniProt O60885)
T1 construct: Recombinant human BRD4 containing dual bromodomains (BRD4-BD12 (1-477)); made in house; host or cells: E. coli BL21-CodonPlus (DE3), modified pET vector
Test: BRD4 Alphascreen binding assay
Method: BRD4 Alphascreen Binding Assay
Binding of compounds of Formula (I) with BRD4 was assessed using Alphascreen binding assay. The inhibition of the interaction between BRD4 and its acetylated target protein was measured quantitatively using recombinant BRD4 protein, an acetylated Histone 4 peptide, and AlphaScreen™ technology. In absence of inhibition of the BRD4 protein bound to AlphaScreen™ nickel chelate acceptor beads can interact with the acetylated Histone 4 peptide which was immobilized by the AlphaScreen™ Streptavidin coated beads. This interaction brings donor and acceptor beads in proximity. The close proximity allows the singlet oxygen produced by laser excitation of the donor beads to reach the acceptor beads and generate a luminescence signal. BRD4 inhibitors result in a decrease in the proximity signal through an inhibition of the BRD4—acetylated peptide interaction.
Recombinant human BRD4 containing dual bromodomains (BRD4-BD12 (1-477)) was prepared and purified as described in protein expression and purification session. The peptide was human Histone H41-21K5AcK8AcK12AcK16Ac-Biotin (Anaspec CA, USA).
Protocol for BRD4 assay: All components are prepared in buffer composed of 50 mM HEPES pH 7.5, 50 mM NaCl, 0.01% BSA, 0.01% Triton X-100, 2 mM DTT. Test compounds and DMSO vehicle are diluted 1:50 in buffer and a 4 μL volume was transferred to an Alphaplate. 5.5 μL of Bromodomain protein and 5.5 μL of peptide are added to wells containing 4 μL of various concentrations of test compounds of Formula (I) or DMSO vehicle in an Alphaplate (PerkinElmer GA, USA) and incubated for 1 hour at room temperature. 5 μL donor and acceptor bead mixture was then added with final concentrations of 7.5 μg/ml. 30 minutes after bead addition, Alpha signal was read on the Envision spectrometer (λEx 680 nm, λEm 520-620 nm). Final concentrations of bromodomain proteins and peptide are as shown below.
All data were normalized to the mean of 16 high and 16 low control wells on each plate. A four parameter curve fit of the following formula was then applied: Y=A+((B−A)/(1+((C/x)^D))) Where ‘A’ is the minimum, ‘B’ is the maximum, ‘C’ is the IC50 and ‘D’ is the Hill slope. Protein Expression and Purification
Recombinant human BRD4 containing dual bromodomains (BRD4-BD12 (1-477)) was expressed in E. coli cells (in a modified pET vector) with an N-terminal six-His tag and purified using a combination of both IMAC (Ni-affinity) and size exclusion chromatography steps.
Recombinant BRD4 was expressed using the E. coli strain BL21-CodonPlus (DE3) (Agilent Technologies CA, USA). Cells were grown in Terrific Broth (TB) media to an OD600 of 2.0 at 37° C. at which temperature was reduced to 18° C., protein was induced with 0.1 mM isopropyl-β-D-thiogalactopyranoside (“IPTG”) for 12-18 hours and harvested by centrifugation at 8000×g for 20 minutes. Cells were re-suspended in 40 mM Tris-HCl pH 8.0, 0.5 M NaCl, 25 mM Imidazole, 5% glycerol, 1/200 vol. Protease Inhibitor Cocktail Set III (Calbiochem), 5 mM beta-mercaptoethanol (“BME”), 0.5 mg/mL Lysozyme, and 0.5 mg/mL DNaseI, incubated on ice for 30 minutes and lysed with a cell disruptor (MicroFluidics MA, USA). The lysate was clarified by centrifugation at 20,000×g for 2 hours. The protein was captured with Ni-NTA resin (Life Technologies, USA). Contaminating proteins were washed off with 40 mM Tris-HCl pH 8.0, 0.5 M NaCl, 25 mM Imidazole, 5% glycerol, and 5 mM BME. Following 3× wash steps, protein was eluted step wise into wash buffer containing 50, 100, 150, 500 mM Imidazole. The protein was further purified using Gel Filtration column 16/60 Superdex 200 (GE Biosciences NJ, USA) in 10 mM HEPES pH 8.0, 150 mM NaCl, and 5 mM DTT. Glycerol was added to a final concentration of 12% and the protein was aliquoted and flash-frozen in liquid Nitrogen.

Row | SMILES | pIC50
1 | Cc1noc(C)c1-c1cnc2c(c1)c(-c1ccc(C(=O)O)cc1OCc1ccccc1)cn2[C@@H](C)c1ccccn1 [P-0139, (S)-3-(benzyloxy)-4-(5-(3,5-dimethylisoxazol-4-yl)-1-(1-(pyridin-2-yl)ethyl)-1H-pyrrolo[2,3-b]pyridin-3-yl)benzoic acid] | 3.00 to 5.10
2 | COc1ccc(C(=O)O)cc1-c1cn(C(C)c2ccccc2)c2cc(-c3c(C)noc3C)cnc12 (centres unmarked) [P-0140, 3-(6-(3,5-dimethylisoxazol-4-yl)-1-(1-phenylethyl)-1H-pyrrolo[3,2-b]pyridin-3-yl)-4-methoxybenzoic acid] | 3.00 to 5.10
3 | Cc1noc(C)c1-c1cnc2c(-c3cc(C(=O)O)ccc3Cl)cn(C(C)c3ccccc3)c2c1 (centres unmarked) [P-0141, 4-chloro-3-(6-(3,5-dimethylisoxazol-4-yl)-1-(1-phenylethyl)-1H-pyrrolo[3,2-b]pyridin-3-yl)benzoic acid] | 3.00 to 5.10
4 | COc1cc(C(=O)O)ccc1-c1cn([C@@H](C)c2ccccn2)c2cc(-c3c(C)noc3C)cnc12 [P-0142, (S)-4-(6-(3,5-dimethylisoxazol-4-yl)-1-(1-(pyridin-2-yl)ethyl)-1H-pyrrolo[3,2-b]pyridin-3-yl)-3-methoxybenzoic acid] | 6.00 to 10.00
5 | Cc1noc(C)c1-c1cnc2c(CC3CCC3)cn(-c3ccc(O)nc3)c2c1 [P-0143, 5-(3-(cyclobutylmethyl)-6-(3,5-dimethylisoxazol-4-yl)-1H-pyrrolo[3,2-b]pyridin-1-yl)pyridin-2-ol] | 3.00 to 5.10
6 | COc1cc(C(=O)O)cc(O)c1-c1cn([C@@H](C)c2ccccn2)c2ncc(-c3c(C)noc3C)cc12 [P-0144, (S)-4-(5-(3,5-dimethylisoxazol-4-yl)-1-(1-(pyridin-2-yl)ethyl)-1H-pyrrolo[2,3-b]pyridin-3-yl)-3-hydroxy-5-methoxybenzoic acid] | 3.00 to 5.10
7 | Cc1noc(C)c1-c1cnc2c(c1)c(-c1ccnc(O)c1)cn2[C@@H](C)c1ccccn1 [P-0145, (S)-4-(5-(3,5-dimethylisoxazol-4-yl)-1-(1-(pyridin-2-yl)ethyl)-1H-pyrrolo[2,3-b]pyridin-3-yl)pyridin-2-ol] | 3.00 to 5.10
8 | COc1cc(C(=O)O)cc(OC)c1-c1cn([C@@H](C)c2ccccn2)c2cc(-c3c(C)noc3C)cnc12 [P-0146, (S)-4-(6-(3,5-dimethylisoxazol-4-yl)-1-(1-(pyridin-2-yl)ethyl)-1H-pyrrolo[3,2-b]pyridin-3-yl)-3,5-dimethoxybenzoic acid] | 3.00 to 5.10
9 | CCOc1cc(C(=O)O)cc(OCC)c1-c1cn([C@@H](C)c2ccccn2)c2ncc(-c3c(C)noc3C)cc12 [P-0147, (S)-4-(5-(3,5-dimethylisoxazol-4-yl)-1-(1-(pyridin-2-yl)ethyl)-1H-pyrrolo[2,3-b]pyridin-3-yl)-3,5-diethoxybenzoic acid] | 3.00 to 5.10
10 | CC[C@@H](c1ccccn1)n1cc(-c2cc(C(=O)O)ccc2Cl)c2ncc(-c3c(C)noc3C)cc21 [P-0148, (S)-4-chloro-3-(6-(3,5-dimethylisoxazol-4-yl)-1-(1-(pyridin-2-yl)propyl)-1H-pyrrolo[3,2-b]pyridin-3-yl)benzoic acid] | 5.10 to 6.00
11 | Cc1noc(C)c1-c1cc2c(cn1)c(CC1CCC1)cn2-c1c(Cl)cc(C(=O)O)cc1Cl [P-0149, 3,5-dichloro-4-(3-(cyclobutylmethyl)-6-(3,5-dimethylisoxazol-4-yl)-1H-pyrrolo[3,2-c]pyridin-1-yl)benzoic acid] | 3.00 to 5.10
12 | Cc1noc(C)c1-c1cnc2c(-c3ccccc3)cn(-c3c(Cl)cc(C(=O)O)cc3Cl)c2c1 [P-0150, 3,5-dichloro-4-(6-(3,5-dimethylisoxazol-4-yl)-3-phenyl-1H-pyrrolo[3,2-b]pyridin-1-yl)benzoic acid] | 5.10 to 6.00
13 | Cc1noc(C)c1-c1cnc2c(C3=CCOCC3)cn(-c3c(Cl)cc(C(=O)O)cc3Cl)c2c1 [P-0151, 3,5-dichloro-4-(3-(3,6-dihydro-2H-pyran-4-yl)-6-(3,5-dimethylisoxazol-4-yl)-1H-pyrrolo[3,2-b]pyridin-1-yl)benzoic acid] | 5.10 to 6.00
14 | COc1cc(C(=O)O)cc(OCC2CC2)c1-c1cn([C@@H](C)c2ccccn2)c2ncc(-c3c(C)noc3C)cc12 [P-0152, (S)-3-(cyclopropylmethoxy)-4-(5-(3,5-dimethylisoxazol-4-yl)-1-(1-(pyridin-2-yl)ethyl)-1H-pyrrolo[2,3-b]pyridin-3-yl)-5-methoxybenzoic acid] | 3.00 to 5.10
15 | COc1cc(C(=O)O)cc(OCC(F)(F)F)c1-c1cn([C@@H](C)c2ccccn2)c2ncc(-c3c(C)noc3C)cc12 [P-0153, (S)-4-(5-(3,5-dimethylisoxazol-4-yl)-1-(1-(pyridin-2-yl)ethyl)-1H-pyrrolo[2,3-b]pyridin-3-yl)-3-methoxy-5-(2,2,2-trifluoroethoxy)benzoic acid] | 3.00 to 5.10
16 | Cc1noc(C)c1-c1cnc2c(-c3ccc(C(=O)O)cc3)c(C(F)(F)F)n([C@@H](C)c3ccccn3)c2c1 [P-0154, (S)-4-(6-(3,5-dimethylisoxazol-4-yl)-1-(1-(pyridin-2-yl)ethyl)-2-(trifluoromethyl)-1H-pyrrolo[3,2-b]pyridin-3-yl)benzoic acid] | 6.00 to 10.00
17 | Cc1noc(C)c1-c1cnc2c(-c3ccccc3Cl)cn(C(C)(c3ccccn3)c3ccccn3)c2c1 [P-0155, 4-(3-(2-chloropheny1)-1-(1,1-di(pyridin-2-yl)ethyl)-1H-pyrrolo[3,2-b]pyridin-6-yl)-3,5-dimethylisoxazole] | 6.00 to 10.00
18 | Cc1noc(C)c1-c1cnc2c(c1)c(-c1ccc(C(=O)O)cc1OC(F)(F)F)cn2C(C1CC1)C1CC1 [P-0156, 4-(1-(dicyclopropylmethyl)-5-(3,5-dimethylisoxazol-4-yl)-1H-pyrrolo[2,3-b]pyridin-3-yl)-3-(trifluoromethoxy)benzoic acid] | 3.00 to 5.10
19 | Cc1noc(C)c1-c1cnc2c(c1)c(-c1ccc(C(=O)O)cc1OC(F)(F)F)cn2CC1CC(F)(F)C1 [P-0157, 4-(1-((3,3-difluorocyclobutyl)methyl)-5-(3,5-dimethylisoxazol-4-yl)-1H-pyrrolo[2,3-b]pyridin-3-yl)-3-(trifluoromethoxy)benzoic acid] | 6.00 to 10.00
20 | Cc1noc(C)c1-c1cnc2c(c1)c(-c1ccc(C(=O)O)cc1OC(F)(F)F)cn2-c1ccccn1 [P-0158, 4-(5-(3,5-dimethylisoxazol-4-yl)-1-(pyridin-2-yl)-1H-pyrrolo[2,3-b]pyridin-3-yl)-3-(trifluoromethoxy)benzoic acid] | 6.00 to 10.00
21 | Cc1noc(C)c1-c1cnc2c(Cc3ccccn3)cn(-c3ccc(C(=O)O)cc3OC(F)(F)F)c2c1 [P-0159, 4-(6-(3,5-dimethylisoxazol-4-yl)-3-(pyridin-2-ylmethyl)-1H-pyrrolo[3,2-b]pyridin-1-yl)-3-(trifluoromethoxy)benzoic acid] | 6.00 to 10.00
22 | Cc1noc(C)c1-c1cnc2c(-c3cnn(C)c3)c(C(F)(F)F)n([C@@H](C)c3ccccn3)c2c1 [P-0160, (S)-3,5-dimethyl-4-(3-(1-methyl-1H-pyrazol-4-yl)-1-(1-(pyridin-2-yl)ethyl)-2-(trifluoromethyl)-1H-pyrrolo[3,2-b]pyridin-6-yl)isoxazole] | 6.00 to 10.00
23 | Cc1noc(C)c1-c1cnc2c(-c3cccc(CC(=O)O)c3)c(C(F)(F)F)n([C@@H](C)c3ccccn3)c2c1 [P-0161, (S)-2-(3-(6-(3,5-dimethylisoxazol-4-yl)-1-(1-(pyridin-2-yl)ethyl)-2-(trifluoromethyl)-1H-pyrrolo[3,2-b]pyridin-3-yl)phenyl)acetic acid] | 3.00 to 5.10
